Experiment [1] concerns Escherichia coli. In words: Bactericidal activity against early exponential phase Escherichia coli assessed as bacterial killing at 6 ug/ml incubated for 6 hrs by time-kill assay. Type of experiment: functional, organism-based. Conditions: dose 6.0 µg/ml.
The subject of experiment [2] is Escherichia coli. In words: Bactericidal activity against early exponential phase Escherichia coli assessed as bacterial killing at 6 ug/ml incubated for 12 hrs by time-kill assay. Type of experiment: functional, organism-based. Particulars: dose 6.0 µg/ml.
Experiment [3] has as its system Escherichia coli. Kind of experiment: Bactericidal activity against late exponential phase Escherichia coli assessed as bacterial killing by measuring bacterial count at 8 ug/ml incubated for 12 hrs by time-kill assay (reference value: 10^8.4 CFU/ml). Type of experiment: functional. Particulars: dose 8 µg/ml.

Active and inactive are the calls of the source. No cut-off for these calls is given here.

Regarding `CO[C@@]1(NC(=O)C(C(=O)O)c2ccc(O)cc2)C(=O)N2C(C(=O)O)=C(CSc3nnnn3C)CO[C@@H]21` (stereo partly drawn) [MOXALACTAM], the outcome with Escherichia coli [1] and in the experiment with Escherichia coli [2] was Active. In the experiment with Escherichia coli [3], the Activity is on record as 1 10^4CFU/ml.

The values above are taken from ChEMBL document CHEMBL6071176, “Development of Phloroglucinol-Linked Tris-Quaternary Ammonium Salt Antimicrobial Peptide Mimics with Low Cytotoxicity and Broad-Spectrum Antibacterial Activity” (J Med Chem, 2024).
